Counter-ions that a name gives are not always drawn. Like-named read-outs stand apart in the source and are kept apart here.
Assays:
cholesterol synthesis = assay: In vivo inhibition of cholesterol synthesis (14C acetate into 14C cholesterol); design: species or system male Holtzman rats; settings: 14C acetate IP after one hour, bled 50 minutes later
Procedure: Groups of male Holtzman rats were dosed with either 5% emulphor in saline or test compound in emulphor by stomach tube. After one hour 80 µCi of ^14C acetate/kg was given IP. The rats were bled 50 minutes later and ^14C cholesterol was determined as a measure of sterol synthesis: […]

mouse L―M cells = target: T1, mouse L―M cells (Mus musculus, UniProt Q01237); assay: Inhibition of sterol synthesis in cell culture (14C sterol from 14C acetic acid); format: cell-based
T1 sequence (Q01237 1-887): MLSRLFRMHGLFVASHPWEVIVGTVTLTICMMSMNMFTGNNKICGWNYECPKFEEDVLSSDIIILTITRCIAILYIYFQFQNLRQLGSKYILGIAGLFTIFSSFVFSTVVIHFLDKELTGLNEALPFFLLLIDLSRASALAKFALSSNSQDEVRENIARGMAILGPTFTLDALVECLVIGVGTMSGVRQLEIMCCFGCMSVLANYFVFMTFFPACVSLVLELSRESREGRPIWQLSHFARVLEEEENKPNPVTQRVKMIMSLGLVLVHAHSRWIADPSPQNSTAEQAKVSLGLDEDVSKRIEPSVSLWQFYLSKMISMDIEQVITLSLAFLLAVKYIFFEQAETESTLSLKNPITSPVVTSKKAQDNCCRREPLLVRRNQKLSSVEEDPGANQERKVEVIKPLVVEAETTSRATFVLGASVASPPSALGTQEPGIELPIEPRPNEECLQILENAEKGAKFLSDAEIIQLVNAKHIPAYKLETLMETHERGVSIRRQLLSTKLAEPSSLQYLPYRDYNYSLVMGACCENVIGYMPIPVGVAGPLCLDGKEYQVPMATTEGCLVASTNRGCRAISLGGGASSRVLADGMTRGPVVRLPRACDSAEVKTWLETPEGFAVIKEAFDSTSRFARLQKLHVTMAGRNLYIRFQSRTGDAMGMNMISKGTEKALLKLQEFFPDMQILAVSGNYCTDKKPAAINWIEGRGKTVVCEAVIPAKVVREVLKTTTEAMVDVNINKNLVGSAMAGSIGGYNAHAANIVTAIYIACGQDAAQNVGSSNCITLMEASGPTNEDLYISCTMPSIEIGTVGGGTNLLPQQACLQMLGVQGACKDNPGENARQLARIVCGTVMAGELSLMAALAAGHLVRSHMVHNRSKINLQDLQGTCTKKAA
Procedure: The procedure of A. W. Alberts et al., J. Biol. Chem. 249: 5241 (1974) measuring the quantity of ^14C sterol biosynthesis frofdm ^14C acetic acid in mouse L―M cells in culture was employed with modification. The test compound in 10 µl DMSO was added to the monolayer cultures with 5 µCi of ^14C acetate. After a 3 hour incubation, the cells were saponified and the ^14C sterol extracted and isolated by thin layer chromatography on silica gel using petroleum ether-diethyl ether-acetic acid (75:25:1). The region on the plate containing ^14C sterol was identified by staining with 12 and the ^14C content determined by liquid scintillation counting.

[1] = Stability of the hydroxy acid on standing
HMG-CoA Reductase = target: T2, HMG-CoA Reductase (Rattus norvegicus, UniProt P51639); assay: In vitro inhibition of HMG Coenzyme A reductase, Beg method modified by 5 min preincubation of enzyme with inhibitor; format: biochemical; settings: modified procedure; read-out: IC50 in inhibiting HMG-CoA Reductase
T2 sequence (P51639 1-887): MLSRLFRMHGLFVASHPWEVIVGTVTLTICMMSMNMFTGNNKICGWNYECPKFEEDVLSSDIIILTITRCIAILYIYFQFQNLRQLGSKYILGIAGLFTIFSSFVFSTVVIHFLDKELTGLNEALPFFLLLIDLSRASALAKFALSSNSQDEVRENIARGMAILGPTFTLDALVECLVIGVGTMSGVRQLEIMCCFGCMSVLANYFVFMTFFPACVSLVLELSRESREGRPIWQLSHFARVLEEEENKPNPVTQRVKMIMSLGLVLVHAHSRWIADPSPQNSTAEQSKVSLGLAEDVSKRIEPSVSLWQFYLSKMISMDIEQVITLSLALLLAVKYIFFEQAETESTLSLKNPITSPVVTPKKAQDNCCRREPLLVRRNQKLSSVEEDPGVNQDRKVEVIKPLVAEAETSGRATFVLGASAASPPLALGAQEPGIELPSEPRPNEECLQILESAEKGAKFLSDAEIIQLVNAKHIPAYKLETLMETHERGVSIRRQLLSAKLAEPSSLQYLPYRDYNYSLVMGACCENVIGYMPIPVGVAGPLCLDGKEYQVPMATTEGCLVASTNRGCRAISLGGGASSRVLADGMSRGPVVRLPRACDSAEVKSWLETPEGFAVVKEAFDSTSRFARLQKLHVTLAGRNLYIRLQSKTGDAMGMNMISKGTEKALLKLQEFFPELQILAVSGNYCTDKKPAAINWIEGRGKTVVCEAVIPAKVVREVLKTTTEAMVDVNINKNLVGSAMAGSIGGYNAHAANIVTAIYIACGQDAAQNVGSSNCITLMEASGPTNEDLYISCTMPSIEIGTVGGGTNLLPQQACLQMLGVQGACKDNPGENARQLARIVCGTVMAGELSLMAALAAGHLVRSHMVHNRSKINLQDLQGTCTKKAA
Procedure: The method of Beg et al., FEBS Letters, 80 123 (1977) was modified slightly by incubating the enzyme with the inhibitor for five minutes before initiating the reaction with the substrate.

[2] = mouse L-M cell monolayers, 3 hour incubation with 14C acetate; read-out: IC50 in inhibiting HMG-CoA reductase

In the case of `CCC(C)C(=O)O[C@H]1C[C@@H](C)C[C@@H]2C=C[C@H](C)[C@H](CC[C@@H]3C[C@@H](O)CC(=O)O3)[C@@H]12` (stereo partly drawn) [Compound II], the “% Inhibition” value (cholesterol synthesis; dose 0.15 mg/kg by stomach tube) is reported as 38%, the “% Inhibition” value (cholesterol synthesis; dose 0.6 mg/kg by stomach tube) is reported as 51% and the “% Inhibition” value (cholesterol synthesis; dose 1.2 mg/kg by stomach tube) is reported as 70%. For the same molecule, the IC50 (mouse L―M cells; [2]) was 17 nM.
With `CCC(C)C(=O)OC1CC(C)CC2C=CC(C)C(CCC(O)CC(O)CC(=O)O)C21` (stereo not drawn) [Compound IV] the “stability of hydroxy acid on standing” value [1] was “slowly reverts to the lactone”.
In the case of `CCC(C)C(=O)O[C@H]1C[C@@H](C)C=C2C=C[C@H](C)[C@H](CC[C@@H]3C[C@@H](O)CC(=O)O3)[C@H]21` (stereo partly drawn) [Compound I], the IC50 (mouse L―M cells; read-out: IC50 in inhibiting HMG-CoA reductase; mouse L-M cell monolayers, 3 hour incubation with 14C acetate) is reported as 22 nM.
`CC[C@H](C)C(=O)O[C@H]1CCC=C2C=C[C@H](C)[C@H](CC[C@@H]3C[C@@H](O)CC(=O)O3)[C@H]21` [ML236B, compactin, reference compound] showed an IC50 (HMG-CoA Reductase) of 5.4 nM and an IC50 (mouse L―M cells; [2]) of 46 nM.
In the case of `CCC(C)C(=O)O[C@H]1C[C@@H](C)C[C@@H]2C=C[C@H](C)[C@H](CC[C@@H](O)C[C@@H](O)CC(=O)O)[C@@H]12` (stereo partly drawn) [sodium salt of Compound IV], the IC50 (HMG-CoA Reductase) is reported as 2.7 nM.
